Results: article PMC3376186 (Bioorganic & medicinal chemistry letters, 2012)
Values belong to the molecule of their own block, whether it stands above or below them.

Key:
[1] = system: LXRα; conditions: reporter-gene assay; reported; cited from earlier work
[2] = biological target: T1, Rev-erbα (Homo sapiens, UniProt P20393); conditions: Luminex technology; cited from earlier work
T1 sequence (P20393 1-614): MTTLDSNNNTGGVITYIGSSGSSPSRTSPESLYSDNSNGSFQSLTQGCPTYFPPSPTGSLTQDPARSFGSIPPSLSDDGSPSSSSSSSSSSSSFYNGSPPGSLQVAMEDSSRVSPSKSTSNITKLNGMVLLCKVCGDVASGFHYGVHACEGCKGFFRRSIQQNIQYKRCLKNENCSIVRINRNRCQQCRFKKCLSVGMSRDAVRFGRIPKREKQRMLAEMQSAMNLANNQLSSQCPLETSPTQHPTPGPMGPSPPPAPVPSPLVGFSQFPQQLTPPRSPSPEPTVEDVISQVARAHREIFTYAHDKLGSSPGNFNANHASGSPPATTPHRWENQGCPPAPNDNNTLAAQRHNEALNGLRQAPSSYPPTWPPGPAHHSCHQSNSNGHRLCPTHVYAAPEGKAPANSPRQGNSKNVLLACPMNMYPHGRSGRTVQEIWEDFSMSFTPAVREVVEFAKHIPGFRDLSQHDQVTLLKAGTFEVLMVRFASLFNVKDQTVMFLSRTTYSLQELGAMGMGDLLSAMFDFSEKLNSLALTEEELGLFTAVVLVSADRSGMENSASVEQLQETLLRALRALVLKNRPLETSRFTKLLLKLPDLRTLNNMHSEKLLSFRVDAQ

[3] = system: LXRβ; conditions: reporter-gene assay; reported; cited from earlier work
[4] = system: RORα; conditions: same FRET assay; reported; cited from earlier work
[5] = system: Rev-erbα-NCoR interaction; conditions: read-out: EC50, enhancement of Rev-erbα-NCoR interaction; FRET assay; cited from earlier work
[6] = system: FXR; conditions: same FRET assay; reported; cited from earlier work
[7] = Mouse plasma and brain exposure after IP dose; type: in vivo, C57Bl6 mice
[8] = system: LRH1; conditions: same FRET assay; reported; cited from earlier work
[9] = system: Rev-erbβ; conditions: Luminex technology; cited from earlier work
[10] = system: SF1; conditions: same FRET assay; reported; cited from earlier work
[11] = biological target: T1, Rev-erbα; conditions: HEK293 cells, Gal4 DBD:REV-ERB LBD α; cited from earlier work
[12] = system: REV-ERB ligand binding domain (LBD) β; conditions: HEK293 cells, Gal4 DBD:REV-ERB LBD β; cited from earlier work
[13] = biological target: T1, Rev-erbα; conditions: circular dichroism analysis; cited from earlier work

Structure (SMILES): CC(C)(C)OC(=O)CN(Cc1ccc(Cl)cc1)Cc1ccc([N+](=O)[O-])s1 [Compound 1]
activity on LXRα [1]: no activity
interaction of Rev-erbα with the NCoR peptide [2]: dose-dependently increased
activity on LXRβ [3]: no activity
activity on RORα [4]: no activity
EC50 [5]: 400 nM
activity on FXR [6]: no activity
b.p. (brain penetration) ([7]; mice, 10 mg/kg IP in 10:10:80 DMSO:Tween:water, t = 2h): 140%
activity on LRH1 [8]: no activity
interaction of Rev-erbβ with the NCoR peptide [9]: dose-dependently increased
activity on SF1 [10]: no activity

Structure (SMILES): CCOC(=O)N1CCC(CN(Cc2ccc(Cl)cc2)Cc2ccc([N+](=O)[O-])s2)C1 (stereo not drawn) [Compound 12e]
Rev-erb-dependent repressor activity (LBD α) [11]: dose-dependently increased
Rev-erb-dependent repressor activity (LBD β) [12]: dose-dependently increased
[Brain] ([7]; mice, 50 mg/kg IP in 15% cremaphor EL, brain levels at 8h): ^d8.7 μM
Direct binding to Rev-erbα [13]: confirmed

Kp at 2 h ([7]; C57Bl6, mouse, brain, ip, 10 mg/kg): 2.42
Structure (SMILES): CS(=O)(=O)N1CCC(CN(Cc2ccc(Cl)cc2)Cc2ccc([N+](=O)[O-])s2)C1 (stereo not drawn) [Compound 12j]
